Key:
Type in all cases: cell-based, human
miR-29c = assay: Quantitative RT-PCR (TaqMan miRNA assay), cellular and secreted miRNA in LSMC; details: for miR-29c level: 48 hours, LSMC; for expression of miR-29c: primary leiomyoma cells
Description: (§1) Total RNA was extracted from LSMC using RNAzol (GeneCopoeia, Rockville, Md.) and their quantity and quality was determined (ND-1000 Spectrophotometer, NanoDrop Technologies, Wilmington, Del.) as previously described (Chuang & Khorram, “miR-200c Regulates IL8 Expression by Targeting IKBKB: A Potential Mediator of Inflammation in Leiomyoma Pathogenesis,” PloS one (2014) 9:e95370). For medium miRNA extraction, 5 pg of synthetic miR-1 from Caenorhabditis elegans (cel-miR-1) was added as a spike-in control for purification efficiency. Subsequently, 2 μg or 10 ng (for miRNA) was reverse transcribed using random primers for CCND1, CDK2, COL1A1, COL3A1, TGF-β3, DNMT1 and EZH2 or specific primers for miR-29c and miR-200c according to the manufacturer's guidelines (Applied Biosystems, Carlsbad, Calif.). Quantitative RT-PCR was carried out using SYBR gene expression master mix or TaqMan miRNA expression assays (Applied Biosystems). Reactions were incubated for 10 min at 95° C. followed by 40 cycles for 15 seconds at 95° C. and 1 min at 60° C. The level of mRNAs and expression of cellular and secreted miRNA was determined using the Invitrogen StepOne System with 18S, RNU6B and cel-miR-1 used for normalization respectively. All reactions were run in triplicate and relative expression was analyzed with the comparative cycle threshold method (2^−ΔΔCT) according to the manufacturer (Applied Biosystems). Values were expressed as fold change compared to the control group.

3′UTR of CDK2 = assay: 3′UTR luciferase reporter assay in LSMC; details: primary leiomyoma cells
miR-200c = assay: Quantitative RT-PCR (TaqMan miRNA assay), cellular and secreted miRNA in LSMC; details: primary leiomyoma cells
Description: as §1

3′UTR of COL3A1 = assay: 3′UTR luciferase reporter assay in LSMC; details: primary leiomyoma cells
Description: LSMC were seeded at 3.5×10^4 cells/well in 6-well plates and at sub-confluence were treated with Tranilast (200 μM) or DMSO as control for 48 hrs. Tranilast and DMSO-treated cells were then transfected with luciferase reporter plasmids (1 μg/well) containing 3′ UTR sequences for COL3A1 or CDK2 (GeneCopoeia, Inc., Rockville, Md.) using PureFection transfection reagent (System Biosciences, Inc., Palo Alto, Calif.). After 48 hrs of transfection Firefly and Renilla luciferase activities were measured using the Dual-Luciferase Reporter Assay System (Promega). Firefly luciferase activity was normalized to Renilla luciferase activity. The level of induction was reported as mean±SEM of three experiments and compared with a ratio in cells treated with DMSO independently set as 1.
FIG. 10A: The relative luciferase activity in LSMC treated with Tranilast (200 μM) or DMSO as control for 48 hrs prior to transfection with Renilla and Firefly luciferase reporter plasmids carrying a 3′UTR fragment of COL3A1, CDK2 or IL8 and incubated with Tranilast (200 μM) or DMSO containing medium after transfection for another 48 hrs. The relative luciferase activity is presented as the ratio of Firefly:Renilla as compared to DMSO which was independently set as 1. The results are presented as mean±SEM of at least three sets of independent experiments using LSMC isolated from 3 patients. FIG. 10B: Protein expression of COL3A1 and CDK2 was determined after transfection of anti-miR scrambled oligonucleotides (aNC) or anti-miR-29c oligonucleotides (a29c) in LSMC for 72 hrs with DMSO or Tranilast (200 μM) treatment for the last 48 hrs. GAPDH was used as loading control. The result is one representative of at least three sets of independent experiments using LSMC isolated from 3 patients. FIG. 10C: The bar graph presented the relative band densities as mean±SEM of at least three independent experiments. Inhibition of protein expression by Tranilast treatment was calculated relative to changes in corresponding DMSO controls in cells transfected with aNC or anti-miR-29c.

## CC(=O)Oc1ccccc1C(=O)O [Aspirin]
miR-29c; Aspirin 10 mM
  miR-29c level: not affected

## O=C(CC1NCCCC1O)Cn1cnc2cc(Br)c(Cl)cc2c1=O (centres unmarked) [Halofuginone]
3′UTR of CDK2; Halofuginone 200 nM
  activity of luciferase reporter containing 3′UTR of CDK2: inhibit
miR-200c; Halofuginone 200 nM
  expression of miR-200c: induce
miR-29c; Halofuginone 200 nM
  expression of miR-29c: induce
3′UTR of COL3A1; Halofuginone 200 nM
  activity of luciferase reporter containing 3′UTR of COL3A1: inhibit

## Cc1ccc(=O)n(-c2ccccc2)c1 [Pirfenidone]
3′UTR of CDK2; Pirfenidone 0.25 mg/ml
  activity of luciferase reporter containing 3′UTR of CDK2: inhibit
miR-200c; Pirfenidone 0.25 mg/ml
  expression of miR-200c: induce
miR-29c; Pirfenidone 0.25 mg/ml
  expression of miR-29c: induce
3′UTR of COL3A1; Pirfenidone 0.25 mg/ml
  activity of luciferase reporter containing 3′UTR of COL3A1: inhibit

## CCCCc1oc2ccccc2c1C(=O)c1cc(I)c(OCCN(CC)CC)c(I)c1 [amiodarone]
miR-29c; amiodarone 1 μM
  miR-29c level: not affected

## bleomycin
miR-29c; bleomycin 10 μg/ml
  miR-29c level: not affected
